Literature values in patent US10716774B1, “Pharmaceutical compositions containing isotretinoin with improved dissolution profile and enhanced stability” (Yale Pharmaceuticals LLC, priority 2018, dated 2020).

Conditions: after multiple dosing, in man

plasma concentration relative to that of the parent drug: about 4 fold
SMILES: CC1=C(/C=C/C(C)=C/C=C/C(C)=C/C(=O)O)C(C)(C)CCC1=O [4-oxo-isotretinoin]
